# In article PMC6599521 (Biochemical pharmacology, 2019):
# Read-outs that look alike come from different tables or passages of the source.
# Assays:
# murine HCN1 channels = murine HCN1 channels (Mus musculus, UniProt O88704); assay type: cell-based; settings: for Inverse agonist behavior on HCN1 gating (in words): ligand alone; for IC50 (in words): no clear inflection in the concentration response curve, omitted from Figure 4B; for ΔV1/2: paired experiments
# HCN1 channels [1] = target: T1, HCN1 channels (Mus musculus, UniProt O88704); experiment: Gating model; assay type: cell-based, murine; settings: for Fold Change of closed state association constant, phenol vs cyclohexanol / Fold Change of open state association constant, phenol vs cyclohexanol / Association constant to closed channels (KC, QC, JC) / Association constant to open channels (KO, QO, JO): common site model S=4; for Association constant to closed channels (KC, QC, JC) / Association constant to open channels (KO, QO, JO): constants and errors divided by 10^4
# T1 sequence (O88704 whole entry): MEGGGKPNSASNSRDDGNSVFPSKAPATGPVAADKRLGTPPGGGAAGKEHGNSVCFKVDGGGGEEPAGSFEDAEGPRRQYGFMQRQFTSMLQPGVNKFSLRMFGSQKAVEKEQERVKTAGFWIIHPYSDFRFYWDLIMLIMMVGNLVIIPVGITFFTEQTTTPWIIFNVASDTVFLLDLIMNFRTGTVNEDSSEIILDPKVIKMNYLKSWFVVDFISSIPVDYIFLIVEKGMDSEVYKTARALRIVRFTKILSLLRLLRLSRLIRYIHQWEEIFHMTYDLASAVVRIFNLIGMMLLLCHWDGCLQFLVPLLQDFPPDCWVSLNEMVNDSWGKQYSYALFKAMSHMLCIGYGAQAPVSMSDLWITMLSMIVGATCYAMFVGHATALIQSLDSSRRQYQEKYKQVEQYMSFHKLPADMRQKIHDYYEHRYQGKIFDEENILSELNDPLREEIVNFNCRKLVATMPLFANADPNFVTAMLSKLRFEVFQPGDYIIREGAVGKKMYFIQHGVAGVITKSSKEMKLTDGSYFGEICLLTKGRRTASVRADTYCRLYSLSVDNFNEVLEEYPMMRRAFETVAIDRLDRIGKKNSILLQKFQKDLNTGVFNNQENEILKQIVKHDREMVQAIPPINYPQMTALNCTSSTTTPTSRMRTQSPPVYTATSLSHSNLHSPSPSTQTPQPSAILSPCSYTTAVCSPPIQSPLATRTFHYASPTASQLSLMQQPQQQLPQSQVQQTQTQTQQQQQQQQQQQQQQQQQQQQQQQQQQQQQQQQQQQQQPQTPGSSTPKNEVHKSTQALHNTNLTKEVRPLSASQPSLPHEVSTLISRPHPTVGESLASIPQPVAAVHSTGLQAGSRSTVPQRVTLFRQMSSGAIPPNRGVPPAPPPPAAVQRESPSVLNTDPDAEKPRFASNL
# HCN1 channels [2] = target: T1, HCN1 channels; experiment: Additivity/competition of ligands with 3 μM DTB-P on HCN1 gating; assay type: cell-based, murine; settings: increasing ligand concentrations plus 3 μM DTB-P
# [3] = cited from earlier work
# [4] = test system: mouse peripheral nerve injury neuropathic pain models; settings: cited from earlier work
# [5] = test system: G-protein coupled inwardly rectifying K+ channels (GIRKs); settings: in vitro; cited from earlier work
# [6] = test system: chimeric mu opiate (μOR-Gqi5) receptors; settings: up to 100 μM; cited from earlier work
# GABAA receptors = settings: cited from earlier work
# α3β glycine receptors = settings: cited from earlier work
# [7] = Hill fit maximal shift of activation midpoint, mean ± SD
# Chain of murine HCN1 channels (O88704 whole entry): as above
structure (smiles),measurement,setting,value
"CC(C)C1CCCC(C(C)C)C1O (stereo not drawn) [DIP-CH, 2,6-di-iso-propyl cyclohexanol]",IC50,murine HCN1 channels,35 ± 21 µM
same,ΔV1/2 max,murine HCN1 channels; [7],−18.9 ± 3.4 mV
same,h (Hill coefficient),"murine HCN1 channels; Hill fit, mean ± SD",0.76 ± 0.19
same,"Fold Change of closed state association constant, phenol vs cyclohexanol",HCN1 channels [1],3.8
same,"Fold Change of open state association constant, phenol vs cyclohexanol",HCN1 channels [1],1.8
same,Behavior in the presence of 3 μM DTB-P (in words),HCN1 channels [2],partial inverse agonists
"CC(C)c1cccc(C(C)C)c1F [DIP-PF, 2,6-di-iso-propyl phenyl-fluorine]",IC50,murine HCN1 channels,267 ± 24 µM
same,Destabilization of association on replacing OH with F,murine HCN1 channels; from observed IC50 ratio,2.3 kcal/mol
same,Destabilization of association on replacing OH with F,murine HCN1 channels; from partition-corrected IC50 ratio,4.5 kcal/mol
same,Shift in IC50 on replacing OH with F,murine HCN1 channels; ratio of observed aqueous IC50s of DIP-P and DIP-PF,46 fold
same,Shift in IC50 on replacing OH with F,murine HCN1 channels; ratio of partition-corrected IC50s of DIP-P and DIP-PF,"1,870 fold"
"Cc1cccc(C)c1S [DM-PT, 2,6-di-methyl phenyl-thiol]",Inverse agonist behavior on HCN1 gating (in words),murine HCN1 channels,clear inverse agonist activity
"CCC1CCCC(CC)C1O (stereo not drawn) [DE-CH, 2,6-di-ethyl cyclohexanol]",IC50,murine HCN1 channels,3000 ± 723 µM
same,Inverse agonist behavior on HCN1 gating (in words),murine HCN1 channels,only weakly effective as an inverse agonist
same,IC50 (in words),murine HCN1 channels,ill-defined
same,Behavior in the presence of 3 μM DTB-P (in words),HCN1 channels [2],neither additivity nor competition
"CC1CCCC(C)C1O (stereo not drawn) [DM-CH, 2,6-di-methyl cyclohexanol]",IC50 (in words),murine HCN1 channels,ill-defined
"CCC(C)C1CCCC(C(C)CC)C1O (stereo not drawn) [DSB-CH, 2,6-di-sec-butyl cyclohexanol]",IC50 (in words),murine HCN1 channels,ill-defined
same,"Association constant to closed channels (KC, QC, JC)",HCN1 channels [1],no effect
same,"Association constant to open channels (KO, QO, JO)",HCN1 channels [1],no effect
"CCc1cccc(CC)c1O [DE-P, 2,6-di-ethyl phenol]",Maximal efficacy lower than the maximal effect of DIP-P and DTB-P,murine HCN1 channels,~ 2 fold
same,ΔV1/2,"murine HCN1 channels; 100 μM, n = 8",−21.6 mV
same,ΔV1/2,"murine HCN1 channels; 300 μM, n = 9",−21.2 mV
same,ΔV1/2 max,murine HCN1 channels; [7],−22.1 ± 1.0 mV
same,h (Hill coefficient),"murine HCN1 channels; Hill fit, mean ± SD",1.95 ± 0.44
same,IC50,"murine HCN1 channels; IC50, Hill fit of ΔV1/2 vs concentration, all parameters free, mean ± SD",25.1 ± 2.7 µM
same,Inverse agonist behavior on HCN1 gating (in words),murine HCN1 channels,partial inverse agonist
same,Aqueous solubility limit,[3]; ref https://comptox.epa.gov/dashboard DTXSID5061401,~ 10 mM
"CC(C)(C)C1CCCC(C(C)(C)C)C1O (stereo not drawn) [DTB-CH, 2,6-di-tert-butyl cycloxhexanol]",ΔV1/2 max,murine HCN1 channels; [7],−9.9 ± 1.5 mV
same,IC50,"murine HCN1 channels; Hill fit of ΔV1/2 vs concentration, all parameters free, mean ± SD",11.4 ± 4.2 µM
same,h (Hill coefficient),"murine HCN1 channels; Hill fit, mean ± SD",1.28 ± 0.47
same,"Fold Change of closed state association constant, phenol vs cyclohexanol",HCN1 channels [1],5.4
same,"Fold Change of open state association constant, phenol vs cyclohexanol",HCN1 channels [1],1.8
same,"Association constant to closed channels (KC, QC, JC)",HCN1 channels [1],4.6 ± 2.0
same,"Association constant to open channels (KO, QO, JO)",HCN1 channels [1],3.1 ± 1.5
same,Behavior in the presence of 3 μM DTB-P (in words),HCN1 channels [2],partial inverse agonists
"Cc1cccc(C)c1N=C=O [DM-PIC, 2,6-di-methyl phenyl-isocyanate]",Inverse agonist behavior on HCN1 gating (in words),murine HCN1 channels,ineffective
same,IC50 (in words),murine HCN1 channels,ill-defined
"CC(C)c1cccc(C(C)C)c1O [DIP-P, 2,6-di-iso-propyl phenol, reference compound]",Shift in the V1/2 of HCN1 gating,murine HCN1 channels,~ −40 mV
same,h (Hill coefficient),murine HCN1 channels,0.85 ± 0.11
same,ΔV1/2 max,murine HCN1 channels,−39.8 ± 2.3 mV
same,IC50,murine HCN1 channels; IC50,5.8 ± 1.2 µM
same,Behavior in the presence of 3 μM DTB-P (in words),HCN1 channels [2],second full inverse
same,Increase of solubility by 2-hydroxypropyl-β-cyclodextrin (HPβCD),[3],≥ 200 fold
same,Anti-hyperalgesia,[4],mechanical and thermal anti-hyperalgesia
same,Direct effect on GIRKs,[5],no direct effect
same,Effect on DAMGO-evoked currents generated by μOR-Gqi5 receptors,[6],inhibit
"CC(C)(C)c1cccc(C(C)(C)C)c1O [DTB-P, 2,6-di-tert-butyl phenol]",IC50,murine HCN1 channels,4.8 ± 0.8 µM
same,ΔV1/2 max,murine HCN1 channels; [7],−42.4 ± 2.8 mV
same,h (Hill coefficient),"murine HCN1 channels; Hill fit, mean ± SD",0.97 ± 0.13
same,Shift in the V1/2 of HCN1 gating,murine HCN1 channels; at the highest concentrations,~ −40 mV
same,Increase of solubility by 2-hydroxypropyl-β-cyclodextrin (HPβCD),[3],≥ 200 fold
same,Anti-hyperalgesia,[4],mechanical and thermal anti-hyperalgesia
same,Activity at GABAA receptors,GABAA receptors,minimal activity
same,Effect on open channel probability (Po) of α3β glycine receptors,α3β glycine receptors,increases open channel probability
"Cc1cccc(C)c1O [DM-P, 2,6-di-methyl phenol]",Inverse agonist behavior on HCN1 gating (in words),murine HCN1 channels,ineffective
same,IC50 (in words),murine HCN1 channels,ill-defined
"CCc1cccc(CC)c1N=C=O [DE-PIC, 2,6-diethyl phenyl-isocyanate]",Inverse agonist behavior on HCN1 gating (in words),murine HCN1 channels,effective
"CCC(C)c1cccc(C(C)CC)c1O (stereo not drawn) [DSB-P, 2,6-di-sec-butyl phenol]",Jc^I closed state association constant,"HCN1 channels [1]; common site model S=4, fit of data without and with 3 μM DTB-P, not scaled","3,696 ± 2,948"
same,Behavior in the presence of 3 μM DTB-P (in words),HCN1 channels [2],low affinity full inverse agonist
